From US12234238B2, “Antimicrobial compounds and methods of making and using the same” (BIOVERSYS AG, priority 2017, dated 2025)
Like-named read-outs stand apart in the source and are kept apart here.

Assays:
[1] = tested on: Eschericia coli (E. coli) strain ATCC25922; test: standard microdilution assay to determine minimum inhibitory concentrations (MICs), E. coli; format: cell-based; details: Escherichia coli
Outline: (§1)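 MICs by broth microdilution in 100 μl final volume following CLSI protocols, with reference strains as quality control. Results presented as +/− relative to a 16 micrograms/mL cutoff.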

[2] = tested on: Staphylococcus aureus (S. aureus) 11540 strain; test: standard microdilution assay to determine minimum inhibitory concentrations (MICs), S. aureus; format: cell-based
Outline: as §1

[3] = Rat infusion study: clinical signs and IV plasma pharmacokinetics across infusion lengths; format: in vivo; details: male Sprague-Dawley rats; for Clinical Signs: 4 mg/kg jugular venous infusion, listed as Compound No. 34, 4 mg/kg; for AUC(0-inf) / Cmax / half-life: male, Sprague-Dawley, rat, plasma, iv, 4 mg/kg, 4 mg/kg IV
Description: Many pyrrolocytosines, including Compound No. 34, share an acute clinical syndrome, which manifests in as a Cmax-driven hemodynamic effect and is associated with immediate clinical signs such as labored breathing. Cmax is the peak concentration a molecule reaches in the plasma, in this case directly following intravenous administration, and is expressed generally in micrograms/milliliter. The syndrome is dose-dependent, meaning that the higher the amount of drug given, the more severe the effects. This is generally considered the limiting toxicity for the effected compounds of this class. Importantly, the efficacy for the pyrrolocytosines, including Compound No. 34, is not driven by the Cmax but rather by the AUC (Area-Under-the-plasma-drug-concentration-time-Curve), which is an expression of the total body exposure to the drug and is expressed generally in micrograms*hour/milliliter. In rat studies with several pyrrolocytosines, including Compound No. 34, it has been shown that increasing the length, or duration, of the intravenous administration effectively modulates or eliminates the clinical syndrome, depresses the concentration maximum, results in a short distribution half-life but still affords drug exposures necessary for efficacy.
As an example, a study conducted by PharmOptima under study number 2017-164 with Compound No. 34, compared the clinical signs and plasma drug concentration data across several infusion lengths: 10-minutes, which is the screening length at which the acute syndrome is observed, 1-hour, 2-hour, 3-hour and 24-hour. A total of 15 male Sprague-Dawley rats (275-300 grams) were used in the study, divided evenly across the 5 dosing regimens. The route of drug administration was via jugular venous infusion, using a syringe infusion pump. Compound No. 34 was formulated in phosphate-buffered mannitol, with a starting pH=6.5.
There was a clear decrease in Cmax as infusion length was increased. The intermediate dosing groups still achieved significant AUC, or drug exposures for efficacy, and particularly with the 3 h infusion itis clear that the dose can be increased to move the AUC higher while not approaching the Cmax associated with the severe end of the acute tolerability. The 24 h infusion is particularly compelling. It indicates the concentration can be titrated to achieve steady-state drug levels for efficacy while remaining well below the Cmax associated with clinical signs. […] In the end, this translates into a generous therapeutic window.

Question: For `C[C@H](N)CCCc1cc(Cl)c(F)c(-c2cc3cn(-c4ccc([C@@H]5CCC[C@@H](CCSC(=N)N)N5)cc4)c(=O)nc3[nH]2)c1` [Compound 34], which MIC [1] is on record?
Answer: The MIC was at most 16 µg/mL.

Question: And the MIC [2]?
Answer: The MIC was at most 16 µg/mL.

Question: And the “Clinical Signs” value ([3]; 10-min infusion)?
Answer: The value was “significant labored breathing”.

Question: And the “Clinical Signs” value ([3]; 1 h, 2 h and 3 h infusion groups)?
Answer: Its value is “minor signs of chewing and licking”.

Question: And the “Clinical Signs” value ([3]; 24 h infusion)?
Answer: Its value is “no clinical signs and none”.

Question: And the AUC(0-inf) ([3]; 10-min infusion)?
Answer: Its AUC(0-inf) is 22000 ng·h/mL.

Question: And the Cmax ([3]; 10-min infusion)?
Answer: The Cmax was 23600 ng/mL.

Question: What about the AUC(0-inf) ([3]; 1 h infusion) of the same compound?
Answer: The AUC(0-inf) was 14400 ng·h/mL.

Question: What about the Cmax ([3]; 1 h infusion) of the same compound?
Answer: Its Cmax is 8890 ng/mL.

Question: What about the AUC(0-inf) ([3]; 2 h infusion) of the same compound?
Answer: The AUC(0-inf) was 14400 ng·h/mL.

Question: What about the Cmax ([3]; 2 h infusion) of the same compound?
Answer: Its Cmax is 8120 ng/mL.

Question: And the AUC(0-inf) ([3]; 3 h infusion)?
Answer: The AUC(0-inf) was 9150 ng·h/mL.

Question: What about the Cmax ([3]; 3 h infusion) of the same compound?
Answer: Its Cmax is 3760 ng/mL.

Question: And the AUC(0-inf) ([3]; 24 h infusion)?
Answer: Its AUC(0-inf) is 11000 ng·h/mL.

Question: What about the Cmax ([3]; 24 h infusion) of the same compound?
Answer: The Cmax was 560 ng/mL.

Question: And the half-life ([3]; 10-min infusion, read-out: T½ (h)-alpha (converted))?
Answer: Its half-life is 1.01 h.

Question: What about the half-life ([3]; 1 h infusion, read-out: T½ (h)-alpha (converted)) of the same compound?
Answer: Its half-life is 0.91 h.

Question: And the half-life ([3]; 2 h infusion, read-out: T½ (h)-alpha (converted))?
Answer: Its half-life is 1.02 h.

Question: And the half-life ([3]; 3 h infusion, read-out: T½ (h)-alpha (converted))?
Answer: The half-life was 0.99 h.

Question: What about the half-life ([3]; 24 h infusion, read-out: T½ (h)-alpha (converted)) of the same compound?
Answer: The half-life was 1.01 h.

Question: What about the half-life ([3]; first of two cells, infusion group(s) unclear (grid: 10-min), read-out: T½ (h)-terminal (converted)) of the same compound?
Answer: Its half-life is 15.2 h.

Question: What about the half-life ([3]; second of two cells, infusion group(s) unclear (grid: 1 h), read-out: T½ (h)-terminal (converted)) of the same compound?
Answer: Its half-life is 15.2 h.
